Results as given in PMC9298916, “The Discovery and Structure‐Activity Evaluation of (+)‐Floyocidin B and Synthetic Analogs” (Chemmedchem, 2021).
Values after ≈ are worked out from the molar mass of the structure shown. Where two headings read alike, the source gives them in different places.

Experiments:
[1] = system: M. catarrhalis ATCC25238I; assay: Micro-broth dilution growth inhibition, M. catarrhalis; assay type: cell-based
[2] = system: HepG2 cells; assay: Cytotoxicity on HepG2 cells (CellTiterGlo); assay type: cell-based; details: 40 h
Method: (§1) Cytotoxicity on THP1 and HepG2 cells
(§2) After 4 hours of HepG2 cell line (provided by ATCC) plating at 2.500 cells /well in 384-w plates, compounds were added to the cells. After an incubation at 37 °C for 40 h, the CellTiterGlo assay (provided by Promega) was performed.
(§3) Luminescence measurement is related to the cell viability. Compound activity is determined by using the control wells with no treatment as control (100% of growth). The assay was performed identically with THP1 cells. All incubations were […]

[3] = physchem; assay type: physicochemical; details: for chromatographic logD: pH 7.4, Log D pH 7.4
Method: 2.4. Assay descriptions for the profiling of all four stereoisomers of (+)-floyocidin B and (−)-avicennone C,1 the avicennone C-floyocidin B hybrids 35, ent-35, 36 and ent-36 as well as the natural product (+)-floyocidin A.
Determination of logD 7.4
LogD values at pH 7.4 were determined by a standardized HPLC method derived from by Genieser et al.8 The calculation of the logD value for measured compounds is performed by comparison of the retention times with standard compounds of known distribution coefficients between 1 -octanol and water at pH 7.4. […]
8 Krass, J. D., Jastorff, B., and Genieser, H.-G. Anal. Chem. 1997, 69, 2575–2581. […]

[4] = system: P. aeruginosa ATCC27853; assay: Micro-broth dilution growth inhibition, P. aeruginosa; assay type: cell-based; details: Pseudomonas aeruginosa, 18 h
[5] = system: E. coli ATCC25922; assay: Micro-broth dilution growth inhibition, E. coli (CAMH); assay type: cell-based; details: Escherichia coli, 18 h
[6] = system: S. aureus ATCC25923; assay: Micro-broth dilution growth inhibition, S. aureus; assay type: cell-based; details: Staphylococcus aureus, 18 h
[7] = Microsomal stability, mouse; assay type: in vitro ADME; details: 1 µM compound; for Microsomal stability CLint, Mouse / Microsomal stability t1/2, Mouse: mouse liver microsomes 0.5 mg/mL; for microsomal CLint at 1 µM / half-life at 1 µM: mouse, pooled liver microsomes, pH 7.4, mouse liver microsomes 0.5 mg/mL; for microsomal CLint at 1 µM: read-out: Microsomal stability CLint, Mouse; for half-life at 1 µM: read-out: Microsomal stability t1/2, Mouse
Method: (§4) 2.4. Assay descriptions for the profiling of all four stereoisomers of (+)-floyocidin B and (−)-avicennone C,1 the avicennone C-floyocidin B hybrids 35, ent-35, 36 and ent-36 as well as the natural product (+)-floyocidin A. […]
(§5) Pooled liver microsomes are purchased. Microsomes are stored at –80 °C prior to use. Microsomes (final protein concentration 0.5 mg/mL), 0.1 M phosphate buffer pH 7.4, and test compound (final substrate concentration 1 µM; final DMSO concentration 0.25%) are preincubated at 37 °C prior to the addition of NADPH (final concentration 1 mM) to initiate the reaction. A minus cofactor control i ncubation is included for each compound tested where 0.1 M phosphate buffer pH 7.4 is added instead of NADPH. Two control compounds are included. All incubations are performed singularly for each test compound. Each compound is incubate d for 0, 5, 15, 30, and 45 min. The control is incubated for 45 min only. The reactions are stopped by transferring incubate into acetonitrile at the appropriat e time points, in a 1:3 ratio. The termination plates are centrifuged at 3,000 rpm for 20 min at 4 °C to precipitate the protein.
(§6) From a plot of ln peak area ratio (compound peak area/internal standard peak area) against time, the gradient of the line is determined. Subsequently, half -life and intrinsic clearance are calculated using the equations below:
(§7) Elimination rate constant (k) = (- gradient)
(§8) Intrinsic clearance (CL )(µL/min/mg protein) = V x 0.693 […]
(§9) where V = Incubation volume (µL)/Microsomal protein (mg)
(§10) Relevant control compounds are assessed, ensuring intrinsic clearance values fall within the specified limits (if available). […]

[8] = Microsomal stability, human; assay type: in vitro ADME; details: 1 µM compound; for microsomal CLint at 1 µM / half-life at 1 µM: human, pooled liver microsomes, pH 7.4, human liver microsomes 0.5 mg/mL; for half-life at 1 µM: read-out: Microsomal stability t1/2, Human; for Microsomal stability CLint, Human / Microsomal stability t1/2, Human: human liver microsomes 0.5 mg/mL
Method: as §4, §5, §6, §7, §8, §9, §10

[9] = Cellular permeability assay utilizing Caco2 cell line; details: human; for Papp at 120 min, 10 µM: Caco-2, Caco‐2 permeability Papp +Elacridar, A2B in the presence of elacridar; for Papp A→B at 120 min, 10 µM: Caco-2, Caco‐2 permeability Papp A2B, A2B
[10] = system: Caco-2 cells; assay: as above; details: 10 µM, 120 min; for Caco‐2 permeability recovery +Elacridar / Caco‐2 permeability Papp +Elacridar: A2B in the presence of elacridar
[11] = system: E. coli ATCC25922 MHC; assay: Micro-broth dilution growth inhibition, E. coli in CAMH with 44 mM sodium bicarbonate (MHC); assay type: cell-based; details: Escherichia coli, ATCC25922, 18 h, E. coli ATCC25922 MHC (CAMH + 44 mM sodium bicarbonate), read-out: MIC
[12] = system: THP1 cells; assay: Cytotoxicity on THP1 cells (CellTiterGlo); assay type: cell-based; details: for Cytotoxicity TC50 THP1: THP1 cells, 40 h
Method: as §1, §2, §3

[13] = system: C. albicans FH2173; assay: Micro-broth dilution growth inhibition, C. albicans (ATP quantification); assay type: cell-based; details: Candida albicans, FH2173, 48 h, read-out: MIC
[14] = system: M. tuberculosis H37Rv; assay: Growth inhibition, M. tuberculosis H37Rv (Middlebrook 7H9, CellTiter-Blue); assay type: cell-based; details: M. tuberculosis H37Rv (Mtb), 6 days
[15] = Moraxella catarrhalis, ATCC25238I, read-out: MIC
[16] = Mycobacterium tuberculosis, 144 h, read-out: MIC

| SMILES | MIC [1, 15] [µg/mL] | Cytotoxicity TC50 HepG2 [2] [µM] | chromatographic logD [3] | MIC [4] [µg/mL] | MIC [5] [µg/mL] | MIC [6] [µg/mL] | Microsomal stability CLint, Mouse [7] [μL/min/mg protein] | Microsomal stability t1/2, Mouse [7] [min] | microsomal CLint at 1 µM [8] [µL/min/mg] | half-life at 1 µM [8] [min] | Papp at 120 min, 10 µM [9] [×10⁻⁶ cm/s] | Caco‐2 permeability recovery +Elacridar [10] | Caco‐2 permeability recovery A2B [10] [%] | MIC [11] [µg/mL] | Cytotoxicity TC50 THP1 [12] [µM] | MIC [13] [µg/mL] | MIC [14, 16] [µg/mL] | microsomal CLint at 1 µM [7] [µL/min/mg] | half-life at 1 µM [7] [min] | Caco‐2 permeability Papp A2B [10] | also measured |
| --- | --- | --- | --- | --- | --- | --- | --- | --- | --- | --- | --- | --- | --- | --- | --- | --- | --- | --- | --- | --- | --- |
| CCCC=Cc1cc2c(cn1)C(O)C1OC1(CC=C(C)C)C2=O (stereo not drawn) [ent‐4] | 16 (≈ 51.1 µM) | 5.97 | 3.97 | > 128 | > 128 | > 128 | 271 | 5.12 | 26.9 | 51.6 | 4.67 | 28.7% | 23.4 | > 128 | 8.78 | > 128 |  |  |  |  | Papp A→B at 120 min, 10 µM [9]: 7.35 ×10⁻⁶ cm/s; Caco‐2 permeability recovery +Elacridar ([10]; listed as ent-4): 28.7%; Caco‐2 permeability recovery A2B ([10]; listed as ent-4): 23.4% |
| CCC/C=C/c1cc2c(cn1)[C@@H](O)[C@H]1O[C@@]1(CC=C(C)C)C2=O [compound 4, (1aR,2R,7aR)‐2‐Hydroxy‐7 a‐(3‐methylbut‐2‐en‐1‐yl)‐5‐((E)‐pent‐1‐en‐1‐yl)‐1 a,7 a‐dihydrooxireno[2,3‐g]isoquinolin‐7(2H)‐one] | 16 (≈ 51.1 µM) | 4.5 | 4.01 | > 128 | > 128 | > 128 |  |  | 72.7 | 19.1 | 5.62 | 14.2% | 10.1 | > 128 | 5.84 | > 128 | 9.4 (≈ 30 µM) | 349 | 3.97 |  | Papp A→B at 120 min, 10 µM [9]: 4.11 ×10⁻⁶ cm/s |
| CCC/C=C/c1ccc2c(c1)C(=O)[C@]1(CC=C(C)C)O[C@@H]1[C@H]2O [compound 36] | 8 (≈ 25.6 µM) | 16.1 | 4.73 | > 128 | > 128 | > 128 |  |  | 39.7 | 34.9 |  |  |  | > 128 | 15.1 | > 128 | 9.4 (≈ 30.1 µM) | 259 | 5.36 |  | Cytotoxicity relative to 4 ([12]; TC50 in THP‐1 and HepG2 compared with 4): three times less cytotoxic than 4 |
| CCCC=Cc1ccc2c(c1)C(=O)C1(CC=C(C)C)OC1C2O (centres unmarked) [compound 35] | 64 (≈ 205 µM) | 9.39 | 4.7 | > 128 | > 128 | > 128 |  |  | 45.5 | 30.5 |  | 29.6% | 76.0 | > 128 | 12.9 | > 128 | 9.4 (≈ 30.1 µM) | 1040 | 1.33 | 135 10^−7 cm s^−1 | Caco‐2 permeability Papp +Elacridar [10]: 181 10^−7 cm s^−1 |
| CCCC=Cc1ccc2c(c1)C(=O)C1(CC=C(C)C)OC1C2O (stereo not drawn) [ent‐36] |  | 11.3 |  |  |  |  | 721 | 1.92 |  |  |  | 12.0% | 14.3 |  | 18.2 |  |  |  |  | 8.55 10^−7 cm s^−1 | Log D pH 7.4 [3]: 4.74; MIC [14]: 9.4 µg/mL (≈ 30.1 µM); Microsomal stability CLint, Human [8]: 29.9 μL/min/mg protein; Microsomal stability t1/2, Human [8]: 46.3 min; Caco‐2 permeability Papp +Elacridar [10]: 12.4 10^−7 cm s^−1; Caco‐2 permeability recovery +Elacridar ([10]; listed as ent-36): 12.0%; Caco‐2 permeability recovery A2B ([10]; listed as ent-36): 14.3% |
| CCCC=Cc1ccc2c(c1)C(=O)C1(CC=C(C)C)OC1C2O (stereo not drawn) [ent‐35] |  | 14.7 |  |  |  |  | 561 | 2.47 |  |  |  | [b] (46.1) % | 37.2 |  | 12.9 |  |  |  |  | 162 10^−7 cm s^−1 | MIC [1]: 32 µg/mL (≈ 102 µM); Log D pH 7.4 [3]: 4.72; MIC [14]: 9.4 µg/mL (≈ 30.1 µM); Microsomal stability CLint, Human [8]: 40.5 μL/min/mg protein; Microsomal stability t1/2, Human [8]: 34.3 min; Caco‐2 permeability recovery +Elacridar ([10]; listed as ent-35): 46.1%; Caco‐2 permeability recovery A2B ([10]; listed as ent-35): 37.2% |
